Experimental data as given in patent publication US7273896B2, “Compositions and methods of using a transient colorant” (Angiotech Pharmaceuticals (US), Inc., priority 2003, dated 2007).

Test: Solubility of fluorescein in COH102 and COH206 buffer
Format: physicochemical
Conditions: 0.1% in COH102 and COH206 buffer
Experimental: General Procedures. Transient colorants were subjected to irradiation or other sterilization methods to determine if they would be stable. Standard chemical mixing, measuring, and analytical methods were utilized. Solubilities for effective amounts of transient colorants mixed in starting materials (and in the final compositions) were verified by routine mixing followed by analytical procedures.
Fluorescein was tested at 0.1% in COH102 and COH206 buffer and found to be soluble. To test in COSEAL®, one-fifth volume of COH102 buffer was replaced with 0.1% to 1.0% fluorescein in COH102 buffer, and the PEGs, COH102, and COH206 were added and dissolved. The fluorescence was noted to go away upon dissolving the mixed PEGs, and the color changed to a light yellow. However, when the solution was sprayed with COH206 buffer to make the reaction product COSEAL®, the fluorescence returned. The final fluorescein concentration was 0.01% to 0.1% by weight of the final composition.

- solubility: soluble
SMILES: O=C1OC2(c3ccc(O)cc3Oc3cc(O)ccc32)c2ccccc21 [Fluorescein, fluorescein]
